# Target: glutathione S-transferase (Schistosoma japonicum GST tag binding GSH beads)
# Experiment: GST–glutathione bead interaction interference profiling – biochemical, multiplex beads, flow cytometry, profiling panel (AID 1769);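 also: target is a GST and green fluorescent protein fusion captured on glutathione beads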
# Settings: flow cytometry fluorescence
row,SMILES,EC50 [µM]
1,COc1ccc(-c2c3c(nc4sc5c(=O)[nH]c(C)nc5c24)CCC3)cc1,3.74
2,Cc1ccc(/C=N/N(C)C2=NS(=O)(=O)c3ccccc32)o1,7.42
3,O=C(CSc1ccc2nnc(-c3ccccn3)n2n1)Nc1nccs1,13
4,CCOC(=O)c1c2c3c(c(Cl)ccc3[nH]c1=O)C(=O)c1ccccc1-2,0.4
5,COc1cc2ccccc2cc1C(=O)NC(=S)Nc1cccc(C(=O)O)c1,9.3
6,CCOc1cccc(Nc2cc3n(c(=O)n2)CCc2cc(OC)c(OC)cc2-3)c1,64.5
7,CCC(C)N1C(=O)/C(=C/c2c(NCCCOC(C)C)nc3c(C)cccn3c2=O)SC1=S (stereo not given),0.201
8,CCN(CC)c1ccc(/C=C/C(=O)c2ccc(Br)cc2)cc1,11.2
9,Cc1cc(N/N=C/c2ccc(O)cc2O)nc(-n2nc(C)cc2C)n1,0.831
10,O=C(OCC1O[C@@H](OC(=O)c2cc(O)c(O)c(O)c2)[C@@H](OC(=O)c2cc(O)c(O)c(O)c2)[C@@H](OC(=O)c2cc(O)c(O)c(O)c2)[C@@H]1OC(=O)c1cc(O)c(O)c(O)c1)c1cc(O)c(O)c(O)c1 (stereo not given in full),0.951
11,Cc1ccc(NC(=O)Nc2ccnc(-c3cccnc3)n2)cc1,2.07
12,O=C(CNC(=O)Cc1ccccc1)N=Nc1c(O)n(Cc2ccc3c(c2)OCO3)c2ccccc12,12
13,O=c1c2ccc([N+](=O)[O-])cc2ncn1Cc1ccccc1C(F)(F)F,7.62
14,COc1cccc(C2CC(c3ccccc3)Nc3ncnn32)c1 (stereo not given),6.49
15,COC(=O)COc1ccc(/C=N/NC(=O)c2ccc(N(Cc3ccccc3)S(C)(=O)=O)cc2)cc1,4.09
16,COCCCNc1nc(=S)[nH]c2cc(OC)c(OC)cc12,15.2
17,COc1ccccc1CNC(=O)c1c(N)n(CCCN2CCOCC2)c2nc3ccccc3nc12,4.43
18,CCCCNc1nc(=S)[nH]c2cc(OC)c(OC)cc12,10.9
19,CC(C)NC(=S)N=Nc1c(O)[nH]c2ccc([N+](=O)[O-])cc12,1.43
20,O=C(CSc1ccc2nnc(-c3cccs3)n2n1)N1CCCC1,1.3
21,COc1ccc(/C=C(/C#N)C(=O)Nc2ccc(O)cc2)cc1C(=O)O,16.4
22,COCCNC(=S)Nc1cc(OC)c(OC)cc1C#N,4.9

row,SMILES,EC50 [µM]
1,CCN1/C(=C/c2ccc3cc(C)ccc3[n+]2C)Sc2ccc3sccc3c21,21
2,COc1ccc(-c2cc(-c3ccc(O)cc3)nc(N)c2C#N)cc1OC,11.5
3,COc1ccc(N/C=C/c2nc(SC)nnc2C)cc1,2.76
4,O=C(Nc1cccc(-c2nnc(-c3ccco3)o2)c1)c1ccccc1,40.8
5,NC(=O)c1cc2nc(-c3ccco3)cc(C(F)(F)F)n2n1,15.9
6,COc1cc2c(cc1OC)-c1cc(NC3CCCCCC3)nc(=O)n1CC2,21
7,CCn1cc(C(=O)O)c(=O)c2cc(F)c(N/N=C/c3ccccc3[N+](=O)[O-])cc21,2.67
8,COc1cccc2c(SCC(=O)N/N=C/c3ccc(O)cc3O)cc(C)nc12,45.4
9,O=c1c2ccccc2nc2ccc(NCc3ccco3)nn12,50.8
10,COc1ccc2nc(C)cc(SCC(=O)N/N=C/c3ccc(O)c(O)c3)c2c1,15.7
11,Cc1cc(C)cc(N2C(=O)NC(=O)/C(=C\C=C\c3ccco3)C2=O)c1,4.38
12,CCN(CC)c1ccc(/C=C(\C#N)C(=O)c2ccc(Br)cc2)cc1,11.1
13,CN(/N=C/c1cccnc1)C1=NS(=O)(=O)c2ccccc21,5.05
14,O=C(/C=C/c1ccc(N2CCC(c3ccccc3)=N2)cc1)c1ccccc1,0.34
15,N#Cc1ccc2ccn(CC(=O)N3CCCc4ccccc43)c2c1,2.4
16,CCOc1cc(/C=C2\SC(=O)N=C2N)ccc1O,2.47
17,O=C(N/N=C(\c1ccccc1)c1ccccn1)c1cccc([N+](=O)[O-])c1,38.1
18,O=c1[nH]c(=O)c2nnc(N/N=C\c3ccc(O)cc3)nc2[nH]1,3.79
19,Nc1nc2c(c(=O)[nH]1)C(c1cccc3ccccc13)C1=C(N2)c2ccccc2C1=O (stereo not given),2.59
20,COc1cc2nc(=S)n(CCCN3CCOCC3)c(N)c2cc1OC,11
21,O=C(CSc1ccc2nnc(-c3cccc(F)c3)n2n1)N1CCCc2ccccc21,0.16
22,Cc1cc2nc3c(=O)n(C4CCCCC4)c(=O)[nH]c3nc2cc1N,6.99

row,SMILES,EC50 [µM]
1,O=C(C[n+]1cccc2ccccc21)c1ccc(NC(=O)c2ccccc2)cc1,10.2
2,O=C(Nc1cccc(Cl)c1)Nc1ccnc(-c2cccnc2)n1,0.499
3,COc1cc(/C=N/NC(=O)CN(Cc2ccccc2)S(=O)(=O)c2ccc3c(c2)OCCO3)ccc1O,20.3
4,O=C(O)c1cccc(-n2cccc2/C=C2/NC(=O)N(c3ccc(Cl)cc3)C2=O)c1,2.25
5,COc1ccc(/C=N/NC(=O)Nc2cccc3nsnc23)cc1OC,0.682
6,Cc1cc2nc3c(=O)[nH]c(=O)[nH]c3nc2c([N+](=O)[O-])c1N,1.18
7,NS(=O)(=O)c1ccc(Nc2nc(-c3ccc(O)cc3O)cs2)cc1,2.29
8,CSc1nc(Cc2ccccc2)cc(=O)[nH]1,31.3
9,Nc1c(C(=O)C2CC2)sc2nc(-c3cccs3)cc(C(F)(F)F)c12,19.3
10,COc1cccc2cc(-c3ccnc(=S)[nH]3)oc12,28.8
11,O=c1c2ccccc2nc2c3ccccc3c(NCc3ccccn3)nn12,3.76
12,O=S1(=O)N=C(N(CCO)/N=C/c2ccncc2)c2ccccc21,36.1
13,Cc1cc2[nH]c3c(c[n+](C)c4ccccc34)c2cc1C,9.45
14,COc1ccc(Nc2nc(-c3c(C)nc4ncccn34)cs2)cc1,8.39
15,CCn1cc(C(=O)O)c(=O)c2cc(F)c(N/N=C/c3ccccc3)cc21,3.88
16,O=c1c2ccccc2nc2ccc(NCc3cccs3)nn12,6.79
17,NC(=S)N=Nc1c(O)[nH]c2c(Br)cc(Br)cc12,69.1
18,CC(=O)Nc1ccc(Nc2ccc3c4c(cc(=O)n3C)-c3ccccc3C(=O)c24)cc1,0.151
19,CCOC(=O)c1cc2c(N)c(C(=O)c3ccc(Br)cc3)sc2[nH]c1=O,0.574
20,CCOC(=O)c1cc(C(=O)OCC)c(=O)[nH]c1N1CCCC1,35.9
21,O=C(Nc1cc(S(=O)(=O)Nc2ccccc2Cl)ccc1O)c1sc2cc(Cl)ccc2c1Cl,3.66
22,Cc1cc(=O)[nH]c2c(N=Nc3ccc(O)cc3)c(N)nn12,1.4

row,SMILES,EC50 [µM]
1,COc1ccc(/C=N/n2c(N)c(S(=O)(=O)c3cccs3)c3nc4ccccc4nc32)cc1OC,0.612
2,N#Cc1c2nc3ccccc3nc2n2cc(NC(=O)c3ccc(F)cc3)ccc12,0.95
3,O=c1nc2c(O)cccn2c2c1c(=O)[nH]c1ccccc12,2.6
4,COc1ccc(N=C2S/C(=C\c3ccc(N4CCOCC4)o3)C(=O)N2CCc2c[nH]c3ccccc23)cc1,0.0269
5,O=[N+]([O-])c1cc(-c2ncccn2)c([N+](=O)[O-])s1,7.57
6,COc1ccc(OC)c(Nc2nc(-c3sc(N)nc3C)cs2)c1,26.9
7,Cc1ccc2c(c1)c1nnc(SCC(=O)N3CCCc4ccccc43)nc1n2CC(=O)O,69.6
8,CN(/N=C/C=C/c1ccccc1)C1=NS(=O)(=O)c2ccccc21,6.02
9,COc1cc(/C=N/Nc2ncnc3sc4c(c23)CCC4)ccc1O,14.4
10,Cn1c(SCCOc2ccccc2F)nc2ccccc2c1=O,4.72
11,Oc1ccc(C2=Nn3c(nnc3-c3ccco3)SC2)cc1O,1.29
12,O=C(O)c1cc(C(=O)O)cc(-c2ccc(/C=c3/sc4nc5ccccc5n4c3=O)o2)c1,11.9
13,O=c1c2ccccc2nc2c3ccccc3c(Cl)nn12,2.04
14,O=C(NCc1cccnc1)c1cccn2c(=O)c3sccc3nc12,25.2
15,CCCCn1c(O)c(/C=C/C=C/C=Nc2ccccc2)sc1=S,0.576
16,O=C(NCc1cccs1)c1cccn2c(=O)c3sccc3nc12,0.664
17,NC(=S)N=Nc1c(O)[nH]c2cc(F)c(F)cc12,15.6
18,CSc1nc2ccc(NC(=O)C3CC(=O)N(Cc4ccco4)C3)cc2s1 (stereo not given),46.9
19,Cn1cccc1/C=C1\SC(=S)N(NC(=O)c2ccccc2Cl)C1=O,51.7
20,O=C(O)CC/C(=C\c1ccc(N2CCCC2)c([N+](=O)[O-])c1)c1nc2ccccc2s1,37
21,Nc1c(S(=O)(=O)c2cccs2)c2nc3ccccc3nc2n1/N=C/c1cccc(O)c1,0.355
22,CCOc1ccc2c(c1)c(N=NC(=N)N)c(O)n2C,25.6

row,SMILES,EC50 [µM]
1,O=C(Cc1ccc(Nc2nc(=S)[nH]c3ccccc23)cc1)NC1CCCCC1,6.65
2,COc1cc(N2CCCC2)c(OC)cc1/C=C(/C#N)c1ccc(Br)cc1,0.0745
3,Oc1ccc2ccccc2c1/C=N/Nc1nnc(-c2ncc[nH]2)c2ccccc12,1.96
4,O=C(CSc1ccc2nnc(-c3ccncc3)n2n1)Nc1nccs1,35.1
5,Cc1ccc(-c2csc3nc4c5ccccc5c(NCCCN5CCOCC5)nn4c(=O)c23)cc1,0.346
6,CN(/N=C/c1ccc(Br)o1)C1=NS(=O)(=O)c2ccccc21,0.184
7,Cc1ccc(O)c(N=Cc2cc(Cc3ccccc3)cc([N+](=O)[O-])c2O)c1,8.29
8,Cc1cccc(S(=O)(=O)c2c(N)n(/N=C/c3cccnc3)c3nc4ccccc4nc23)c1,3.42
9,Cc1sc2nc3c(SC(C)C(=O)O)cc(C(=O)c4ccccc4O)cn3c(=O)c2c1C (stereo not given),92.7
10,Cc1nc2ncccn2c1-c1csc(Nc2ccc(O)cc2)n1,0.265
11,COc1ccc(S(=O)(=O)N2CCCCC2)cc1NC(=O)c1ccc([N+](=O)[O-])o1,28.6
12,CN(/N=C/c1ccco1)C1=NS(=O)(=O)c2ccccc21,2.54
13,CC(=O)N1C(=O)/C(=C2\SC(=S)N(NC(=O)c3ccc(O)cc3)C2=O)c2ccccc21,4.13
14,C/C(=N\Nc1ccc(S(N)(=O)=O)cc1[N+](=O)[O-])c1ccc2c(c1)OCO2,1.4
15,CCOc1ccccc1C(=O)Nc1cccc(-c2ccc3nncn3n2)c1,1.96
16,COc1cc(OC)c(-c2c3cc(O)c(=O)cc-3oc3cc(O)c(O)cc23)cc1OC,0.258
17,COCCN1C(=O)/C(=C/c2ccc(N3CCCC3)cc2C)SC1=S,1.69
18,Cc1cc(/C=c2\sc3nc4ccccc4n3c2=O)c(C)n1-c1ccc(C(=O)O)cc1,47.5
19,COc1ccc2c(C)nc(N/C(N)=N/S(=O)(=O)c3ccc(C)cc3)nc2c1,7.51
20,O=C1/C(=C\c2ccc(-c3ccccc3Cl)o2)SC(=S)N1CC1CCCO1 (stereo not given),17.3
21,O=c1c2ccccc2nc2c3ccccc3c(NCCO)nn12,3.55
22,COc1ccc(S(=O)(=O)N2CCOCC2)cc1NC(=O)COc1cccnc1[N+](=O)[O-],64

# Source: PubChem BioAssay AID1769 (NMMLSC, 2009)
